Data as given in ChEMBL document CHEMBL3885881, “DrugMatrix”.

Species: Rattus norvegicus
Test: DrugMatrix - Regimen: Daily Repeat
Format: toxicity, organism-based, Sprague-Dawley
Design: regimen Daily Repeat, gender Male, age 6-8 weeks
Details: in vivo, po, route oral GAVAGE, […]; for MONOCYTE / NEUTROPHIL / NUCLEATED RED BLOOD CELLS / PLATELET COUNT / ABSOLUTE BASOPHIL / ABSOLUTE EOSINOPHIL / ABSOLUTE LYMPHOCYTE / ABSOLUTE MONOCYTE / ABSOLUTE SEGMENTED NEUTROPHIL / BASOPHIL / EOSINOPHIL / ERYTHROCYTE COUNT / HEMATOCRIT / LEUKOCYTE COUNT / MEAN CORPUSCULAR HEMOGLOBIN / MEAN CORPUSCULAR HEMOGLOBIN CONCENTRATION / MEAN CORPUSCULAR VOLUME: tissue Blood; for ALANINE AMINOTRANSFERASE / ALBUMIN / ALKALINE PHOSPHATASE / ASPARTATE AMINOTRANSFERASE / BLOOD UREA NITROGEN / CHLORIDE / CREATINE PHOSPHOKINASE / CREATININE / GLUCOSE / LACTATE DEHYDROGENASE / LIPASE / PHOSPHORUS / POTASSIUM / TOTAL BILIRUBIN / URIC ACID / CHOLESTEROL: tissue Plasma
[1] = 150 mg/kg, 72 h, dose level M1, time 3 day
[2] = 300 mg/kg, 72 h, dose level High, time 3 day
[3] = 300 mg/kg, 120 h, dose level High, time 5 day

C[C@@H]1C[C@H]2[C@@H]3CCC4=CC(=O)C=C[C@]4(C)[C@@]3(F)[C@@H](O)C[C@]2(C)[C@@]1(O)C(=O)CO [DEXAMETHASONE]
MONOCYTE [1]: 0% | NEUTROPHIL [1]: 90.33% | NUCLEATED RED BLOOD CELLS [1]: 0 /100WBC | PLATELET COUNT [1]: 661.67 x10E3/uL | ALANINE AMINOTRANSFERASE [1]: 222.67 u/L | ALBUMIN [1]: 4.03 G/DL | ALKALINE PHOSPHATASE [1]: 224 u/L | ASPARTATE AMINOTRANSFERASE [1]: 153.67 u/L | BLOOD UREA NITROGEN [1]: 40.67 mg/dL | CHLORIDE [1]: 88.33 MEQ/L | CREATINE PHOSPHOKINASE [1]: 139 u/L | CREATININE [1]: 0.28 mg/dL | GLUCOSE [1]: 361.33 mg/dL | LACTATE DEHYDROGENASE [1]: 175.33 u/L | LIPASE [1]: 12 u/L | PHOSPHORUS [1]: 7.7 mg/dL | POTASSIUM [1]: 3.29 MEQ/L | TOTAL BILIRUBIN [1]: 0.27 mg/dL | URIC ACID [1]: 0.6 mg/dL | ABSOLUTE BASOPHIL [2]: 0 CELLS/uL | ABSOLUTE EOSINOPHIL [2]: 101.33 CELLS/uL | ABSOLUTE LYMPHOCYTE [2]: 370.67 CELLS/uL | ABSOLUTE MONOCYTE [2]: 0 CELLS/uL | ABSOLUTE SEGMENTED NEUTROPHIL [2]: 13461.33 CELLS/uL | BASOPHIL [2]: 0% | EOSINOPHIL [2]: 0.67% | ERYTHROCYTE COUNT [2]: 4.56 x10E6/uL | HEMATOCRIT [2]: 29.6% | LEUKOCYTE COUNT [2]: 13.93 x10E3/uL | MEAN CORPUSCULAR HEMOGLOBIN [2]: 26.77 pg | MEAN CORPUSCULAR HEMOGLOBIN CONCENTRATION [2]: 41.3 G/DL | MEAN CORPUSCULAR VOLUME [2]: 64.73 fL | MONOCYTE [2]: 0% | NEUTROPHIL [2]: 96.67% | NUCLEATED RED BLOOD CELLS [2]: 3 /100WBC | PLATELET COUNT [2]: 922.33 x10E3/uL | ALANINE AMINOTRANSFERASE [2]: 191 u/L | ALBUMIN [2]: 3.07 G/DL | ALKALINE PHOSPHATASE [2]: 263 u/L | ASPARTATE AMINOTRANSFERASE [2]: 136.33 u/L | BLOOD UREA NITROGEN [2]: 17 mg/dL | CHLORIDE [2]: 90.33 MEQ/L | CHOLESTEROL [2]: 231 mg/dL | CREATINE PHOSPHOKINASE [2]: 714.67 u/L | CREATININE [2]: 0.13 mg/dL | GLUCOSE [2]: 404.67 mg/dL | LACTATE DEHYDROGENASE [2]: 193.33 u/L | LIPASE [2]: 55 u/L | PHOSPHORUS [2]: 10.2 mg/dL | POTASSIUM [2]: 3.86 MEQ/L | TOTAL BILIRUBIN [2]: 1.1 mg/dL | URIC ACID [2]: 1.1 mg/dL | ABSOLUTE BASOPHIL [3]: 0 CELLS/uL | ABSOLUTE EOSINOPHIL [3]: 0 CELLS/uL | ABSOLUTE LYMPHOCYTE [3]: 332 CELLS/uL | ABSOLUTE MONOCYTE [3]: 0 CELLS/uL | ABSOLUTE SEGMENTED NEUTROPHIL [3]: 16268 CELLS/uL | BASOPHIL [3]: 0% | EOSINOPHIL [3]: 0% | ERYTHROCYTE COUNT [3]: 2.89 x10E6/uL | HEMATOCRIT [3]: 17% | LEUKOCYTE COUNT [3]: 16.6 x10E3/uL | MEAN CORPUSCULAR HEMOGLOBIN [3]: 25.3 pg | MEAN CORPUSCULAR HEMOGLOBIN CONCENTRATION [3]: 42.9 G/DL | MEAN CORPUSCULAR VOLUME [3]: 58.9 fL | MONOCYTE [3]: 0% | NEUTROPHIL [3]: 98% | NUCLEATED RED BLOOD CELLS [3]: 0 /100WBC | PLATELET COUNT [3]: 777 x10E3/uL | ALANINE AMINOTRANSFERASE [3]: 1291 u/L | ALBUMIN [3]: 3.2 G/DL | ALKALINE PHOSPHATASE [3]: 579 u/L | ASPARTATE AMINOTRANSFERASE [3]: 470 u/L | BLOOD UREA NITROGEN [3]: 26 mg/dL | CHLORIDE [3]: 87 MEQ/L | CHOLESTEROL [3]: 201 mg/dL | CREATINE PHOSPHOKINASE [3]: 1188 u/L | CREATININE [3]: 0.1 mg/dL | GLUCOSE [3]: 443 mg/dL | LACTATE DEHYDROGENASE [3]: 750 u/L | LIPASE [3]: 9 u/L | PHOSPHORUS [3]: 10.7 mg/dL | POTASSIUM [3]: 2.68 MEQ/L | TOTAL BILIRUBIN [3]: 0.8 mg/dL | URIC ACID [3]: 0.7 mg/dL
